Measured values taken from patent publication US10975080B2, “Compounds and compositions for inhibiting the activity of SHP2” (NOVARTIS AG, priority 2015, dated 2021).
Where two headings read alike, the source gives them in different places.

Target: SHP2 (Homo sapiens (Human), UniProt Q06124)
Assay: SHP2 Allosteric Inhibition Assay
Format: biochemical
Settings: 0.5 nM SHP2 with 0.5 μM peptide IRS1_pY1172(dPEG8)pY1222, surrogate substrate DiFMUP, 25° C.
Text: SHP2 Allosteric Inhibition Assay
SHP2 is allosterically activated through binding of bis-tyrosyl-phosphorylated peptides to its Src Homology 2 (SH2) domains. The latter activation step leads to the release of the auto-inhibitory interface of SHP2, which in turn renders the SHP2 protein tyrosine phosphatase (PTP) active and available for substrate recognition and reaction catalysis. The catalytic activity of SHP2 was monitored using the surrogate substrate DiFMUP in a prompt fluorescence assay format.
After 30-60 minutes incubation at 25° C., the surrogate substrate DiFMUP (Invitrogen, cat #D6567) was added to the reaction and incubated at 25° C. for 30 minutes. […] The inhibitor dose response curves were analyzed using normalized IC50 regression curve fitting with control based normalization.

Chain of SHP2 (Q06124 whole entry): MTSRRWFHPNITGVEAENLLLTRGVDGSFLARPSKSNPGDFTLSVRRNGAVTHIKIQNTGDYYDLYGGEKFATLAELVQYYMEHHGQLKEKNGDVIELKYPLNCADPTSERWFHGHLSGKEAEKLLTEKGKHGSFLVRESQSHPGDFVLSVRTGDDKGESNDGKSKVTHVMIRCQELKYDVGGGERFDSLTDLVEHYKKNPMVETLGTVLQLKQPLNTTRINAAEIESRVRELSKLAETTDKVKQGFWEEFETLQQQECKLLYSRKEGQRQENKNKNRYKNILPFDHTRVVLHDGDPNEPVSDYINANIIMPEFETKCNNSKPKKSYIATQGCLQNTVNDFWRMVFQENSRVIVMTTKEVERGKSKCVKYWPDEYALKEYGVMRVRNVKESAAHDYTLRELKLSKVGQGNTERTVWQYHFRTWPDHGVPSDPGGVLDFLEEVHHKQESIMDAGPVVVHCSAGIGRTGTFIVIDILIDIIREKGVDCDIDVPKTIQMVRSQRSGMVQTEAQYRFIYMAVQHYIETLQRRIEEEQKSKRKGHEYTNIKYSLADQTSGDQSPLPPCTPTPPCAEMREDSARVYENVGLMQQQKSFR

Row | SMILES | IC50 (read-out: SHP2 IC50) [nM] | IC50 (read-out: IC50) [nM]
1 | COc1nccc(-c2n[nH]c3nc(N4CCC5(CC4)CO[C@@H](C)[C@H]5N)n(C)c(=O)c23)c1Cl [Example 18, 6-((3S,4S)-4-amino-3-methyl-2-oxa-8-azaspiro[4.5]decan-8-yl)-3-(3-chloro-2-methoxypyridin-4-yl)-5-methyl-1,5-dihydro-4H-pyrazolo[3,4-d]pyrimidin-4-one] | 43 | 
2 | C[C@@H]1OCC2(CCN(c3nc4[nH]nc(-c5ccccc5)c4c(=O)n3C)CC2)[C@@H]1N [Example 41, 6-((3S,4S)-4-amino-3-methyl-2-oxa-8-azaspiro[4.5]decan-8-yl)-5-methyl-3-phenyl-1,5-dihydro-4H-pyrazolo[3,4-d]pyrimidin-4-one] | 33 | 
3 | CCNc1nccc(-c2n[nH]c3nc(N4CCC5(CC4)CO[C@@H](C)[C@H]5N)n(C)c(=O)c23)c1Cl [Example 72, 6-((3S,4S)-4-amino-3-methyl-2-oxa-8-azaspiro[4.5]decan-8-yl)-3-(3-chloro-2-(ethylamino)pyridin-4-yl)-5-methyl-1,5-dihydro-4H-pyrazolo[3,4-d]pyrimidin-4-one] | 47 | 
4 | C[C@H]1C[C@@H](N)C2(CCN(c3nc4[nH]nc(-c5ccnc(N)c5Cl)c4c(=O)n3C)CC2)C1 [Example 76, 3-(2-amino-3-chloropyridin-4-yl)-6-((1R,3R)-1-amino-3-methyl-8-azaspiro[4.5]decan-8-yl)-5-methyl-1,5-dihydro-4H-pyrazolo[3,4-d]pyrimidin-4-one] | 32 | 
5 | COc1ccc(-c2n[nH]c3nc(N4CCC5(CC4)CO[C@@H](C)[C@H]5N)n(C)c(=O)c23)cc1F [Example 59, 6-((3S,4S)-4-amino-3-methyl-2-oxa-8-azaspiro[4.5]decan-8-yl)-3-(3-fluoro-4-methoxyphenyl)-5-methyl-1,5-dihydro-4H-pyrazolo[3,4-d]pyrimidin-4-one] | 13 | 
6 | CNc1nccc(-c2n[nH]c3nc(N4CCC5(CC4)CO[C@@H](C)[C@H]5N)n(C)c(=O)c23)c1Cl [Example 32, 6-((3S,4S)-4-amino-3-methyl-2-oxa-8-azaspiro[4.5]decan-8-yl)-3-(3-chloro-2-(methylamino)pyridin-4-yl)-5-methyl-1,5-dihydro-4H-pyrazolo[3,4-d]pyrimidin-4-one] | 54 | 
7 | C[C@@H]1OCC2(CCN(c3nc4[nH]nc(Sc5ccnc(N)c5Cl)c4c(=O)n3C)CC2)[C@@H]1N [Example 84, 3-((2-amino-3-chloropyridin-4-yl)thio)-6-((3S,4S)-4-amino-3-methyl-2-oxa-8-azaspiro[4.5]decan-8-yl)-5-methyl-1,5-dihydro-4H-pyrazolo[3,4-d]pyrimidin-4-one] | 27 | 
8 | COc1nccc(-c2c[nH]c3nc(N4CCC5(CC4)CO[C@@H](C)[C@H]5N)[nH]c(=O)c23)c1Cl [Example 10, 2-((3S,4S)-4-amino-3-methyl-2-oxa-8-azaspiro[4.5]decan-8-yl)-5-(3-chloro-2-methoxypyridin-4-yl)-3H-pyrrolo[2,3-d]pyrimidin-4(7H)-one] |  | 26
9 | Cc1nc(N(C)C)ccc1-c1n[nH]c2nc(N3CCC4(CC3)CO[C@@H](C)[C@H]4N)n(C)c(=O)c12 [Example 40, 6-((3S,4S)-4-amino-3-methyl-2-oxa-8-azaspiro[4.5]decan-8-yl)-3-(6-(dimethylamino)-2-methylpyridin-3-yl)-5-methyl-1,5-dihydro-4H-pyrazolo[3,4-d]pyrimidin-4-one] | 89 | 
10 | Cc1nc(N)ccc1-c1n[nH]c2nc(N3CCC4(CC3)CO[C@@H](C)[C@H]4N)n(C)c(=O)c12 [Example 47, 3-(6-amino-2-methylpyridin-3-yl)-6-((3S,4S)-4-amino-3-methyl-2-oxa-8-azaspiro[4.5]decan-8-yl)-5-methyl-1,5-dihydro-4H-pyrazolo[3,4-d]pyrimidin-4-one] | 37 | 
11 | C[C@H]1C[C@@H](N)C2(CCN(c3nc4[nH]nc(-c5ccncc5)c4c(=O)n3C)CC2)C1 [Example 36, 6-((1R,3R)-1-amino-3-methyl-8-azaspiro[4.5]decan-8-yl)-5-methyl-3-(pyridin-4-yl)-1,5-dihydro-4H-pyrazolo[3,4-d]pyrimidin-4-one] | 9 | 
12 | Cn1c(N2CCC3(CCC[C@H]3N)CC2)nc2n[nH]c(-c3cccc(Cl)c3Cl)c2c1=O [Example 2, (R)-6-(1-amino-8-azaspiro[4.5]decan-8-yl)-3-(2,3-dichlorophenyl)-5-methyl-2H-pyrazolo[3,4-d]pyrimidin-4(5H)-one] |  | 25.5
13 | C[C@@H]1OCC2(CCN(c3nc4[nH]nc(-c5ccc6c(c5)CCO6)c4c(=O)n3C)CC2)[C@@H]1N [Example 56, 6-((3S,4S)-4-amino-3-methyl-2-oxa-8-azaspiro[4.5]decan-8-yl)-3-(2,3-dihydrobenzofuran-5-yl)-5-methyl-1,5-dihydro-4H-pyrazolo[3,4-d]pyrimidin-4-one] | 95 | 
14 | C[C@@H]1OCC2(CCN(c3nc4[nH]nc(-c5cc(Cl)ncc5Cl)c4c(=O)n3C)CC2)[C@@H]1N [Example 79, 6-((3S,4S)-4-amino-3-methyl-2-oxa-8-azaspiro[4.5]decan-8-yl)-3-(2,5-dichloropyridin-4-yl)-5-methyl-1,5-dihydro-4H-pyrazolo[3,4-d]pyrimidin-4-one] | 30 | 
15 | C[C@@H]1OCC2(CCN(c3nc4[nH]nc(-c5cc(F)ccc5F)c4c(=O)n3C)CC2)[C@@H]1N [Example 62, 6-((3S,4S)-4-amino-3-methyl-2-oxa-8-azaspiro[4.5]decan-8-yl)-3-(2,5-difluorophenyl)-5-methyl-1,5-dihydro-4H-pyrazolo[3,4-d]pyrimidin-4-one] | 17 | 
16 | C[C@@H]1OCC2(CCN(c3nc4[nH]nc(-c5ccnc(N(C)C)c5Cl)c4c(=O)n3C)CC2)[C@@H]1N [Example 71, 6-((3S,4S)-4-amino-3-methyl-2-oxa-8-azaspiro[4.5]decan-8-yl)-3-(3-chloro-2-(dimethylamino)pyridin-4-yl)-5-methyl-1,5-dihydro-4H-pyrazolo[3,4-d]pyrimidin-4-one] | 22 | 
17 | CNc1nccc(-c2n[nH]c3nc(N4CCC5(CC4)CO[C@@H](C)[C@H]5N)n(C)c(=O)c23)c1Br [Example 35, 6-((3S,4S)-4-amino-3-methyl-2-oxa-8-azaspiro[4.5]decan-8-yl)-3-(3-bromo-2(methylamino)pyridin-4-yl)-5-methyl-1,5-dihydro-4H-pyrazolo[3,4-d]pyrimidin-4-one] | 34 | 
18 | Cn1c(N2CCC3(CC2)COC[C@H]3N)nc2[nH]nc(-c3ccnc(N)c3Cl)c2c1=O [Example 23, (S)-3-(2-amino-3-chloropyridin-4-yl)-6-(4-amino-2-oxa-8-azaspiro[4.5]decan-8-yl)-5-methyl-1,5-dihydro-4H-pyrazolo[3,4-d]pyrimidin-4-one] | 64 | 
19 | C[C@@H]1OCC2(CCN(c3nc4[nH]nc(-c5cc(N)nc(Cl)c5Cl)c4c(=O)n3C)CC2)[C@@H]1N [Example 6, 3-(6-amino-2,3-dichloropyridin-4-yl)-6-((3S,4S)-4-amino-3-methyl-2-oxa-8-azaspiro[4.5]decan-8-yl)-5-methyl-1,5-dihydro-4H-pyrazolo[3,4-d]pyrimidin-4-one] |  | 380
20 | C[C@@H]1OCC2(CCN(c3nc4[nH]nc(-c5ccnc(Cl)c5Br)c4c(=O)n3C)CC2)[C@@H]1N [Example 33, 6-((3S,4S)-4-amino-3-methyl-2-oxa-8-azaspiro[4.5]decan-8-yl)-3-(3-bromo-2-chloropyridin-4-yl)-5-methyl-1,5-dihydro-4H-pyrazolo[3,4-d]pyrimidin-4-one] | 13 | 
21 | Cn1c(N2CCC(C)(CN)CC2)nc2[nH]nc(-c3ccncc3Cl)c2c1=O [Example 28, 6-(4-(aminomethyl)-4-methylpiperidin-1-yl)-3-(3-chloropyridin-4-yl)-5-methyl-1,5-dihydro-4H-pyrazolo[3,4-d]pyrimidin-4-one] | 312 | 
22 | C[C@@H]1OCC2(CCN(c3nc4[nH]nc(-c5c(F)ccc(Cl)c5Cl)c4c(=O)n3C)CC2)[C@@H]1N [Example 27, 6-((3S,4S)-4-amino-3-methyl-2-oxa-8-azaspiro[4.5]decan-8-yl)-3-(2,3-dichloro-6-fluorophenyl)-5-methyl-1,5-dihydro-4H-pyrazolo[3,4-d]pyrimidin-4-one] | 450 | 
23 | C[C@@H]1OCC2(CCN(c3nc4[nH]nc(-c5ccc(F)c(F)c5)c4c(=O)n3C)CC2)[C@@H]1N [Example 58, 6-((3S,4S)-4-amino-3-methyl-2-oxa-8-azaspiro[4.5]decan-8-yl)-3-(3,4-difluorophenyl)-5-methyl-1,5-dihydro-4H-pyrazolo[3,4-d]pyrimidin-4-one] | 11 | 
24 | C[C@H]1C[C@@H](N)C2(CCN(c3nc4[nH]nc(-c5ccnc(N(C)C)c5Cl)c4c(=O)n3C)CC2)C1 [Example 73, 6-((1R,3R)-1-amino-3-methyl-8-azaspiro[4.5]decan-8-yl)-3-(3-chloro-2-(dimethylamino)pyridin-4-yl)-5-methyl-1,5-dihydro-4H-pyrazolo[3,4-d]pyrimidin-4-one] | 28 | 
25 | C[C@@H]1OCC2(CCN(c3nc4[nH]nc(-c5cccc(F)c5F)c4c(=O)n3C)CC2)[C@@H]1N [Example 60, 6-((3S,4S)-4-amino-3-methyl-2-oxa-8-azaspiro[4.5]decan-8-yl)-3-(2,3-difluorophenyl)-5-methyl-1,5-dihydro-4H-pyrazolo[3,4-d]pyrimidin-4-one] | 13 | 
26 | Cn1c(N2CCC(C)(CN)CC2)nc2[nH]cc(-c3cccc(Cl)c3Cl)c2c1=O [Example 5, 2-(4-(aminomethyl)-4-methylpiperidin-1-yl)-5-(2,3-dichlorophenyl)-3-methyl-3H-pyrrolo[2,3-d]pyrimidin-4(7H)-one] |  | 100
